The values that follow come from patent publication US20260132103A1, “Bumetanide Derivatives for the Therapy of Stroke and Other Neurological Diseases/Disorders Involving NKCCs” (University of Pittsburgh - Of the Commonwealth System of …, priority 2018, published 2026).

Each structure is given as a SMILES string.

Assay [1] concerns transient focal cerebral ischemia (tMCAO) in mice. Description: Grid walking foot-fault test after tMCAO. The assay is classed as in vivo, mouse. As to conditions: day 3 post-stroke. The text has this:
FIGS. 2A-2D: Efficacy of NKCC1 inhibitors on improving neurological function in mice after tMCAO (see Example 3). (A) Neurological score, (B) corner test, (C) foot-fault test, and (D)-(E) adhesive tape test during 1-14 day after tMCAO. Data are mean±SD, n=4-9. *p<0.05 for DMSO vs STS66, **p<0.05 for DMSO vs STS5, ***p<0.05 for DMSO vs BMT, #p<0.05 for BMT vs STS66, ###p<0.05 for STS5 vs STS66.
Transient focal cerebral ischemia was induced in mice by intraluminal occlusion of the left middle cerebral artery (MCA) for 50 min as described previously (Chen H et al., 2005). Mice were anesthetized with 3% isoflurane in 70%: 30% N2O/O2 until they were unresponsive to the tail pinch test. Animals were then fitted with a nose cone blowing 1.5% isoflurane for anesthesia maintenance. The left common carotid artery was exposed and the occipital artery branches of the external carotid artery were isolated and coagulated. The internal carotid artery was isolated and the extracranial branch was dissected and ligated. […]
The grid walking test is sensitive to deficits in descending motor control. […] The data were expressed as the number of foot fault errors made by the forelimbs contralateral to the injured hemisphere as a percentage of total steps (Jun Zhang, et al., 2017).

Assay [2] deals with GL26 and SB28-GFP cells. In words: Rubidium uptake assay (Rb+ influx). The assay is classed as cell-based, mouse. As to the method:
FIGS. 4A-4B: Rb^+ influx was measured in GL26 and SB28-GFP cells in either isotonic (10 min) or hypertonic (5 min) solutions using ICR 8000 machine. (4A) Cells were exposed to isotonic or hypertonic solutions with BMT (10 μM) or STS66 (10 μM). (4B) Cells were exposed to isotonic or hypertonic solutions with different concentrations of STS66 (0 to 40 μM). Results are expressed as means±SEM from four independent experiments. **P<0.01, ***P<0.001, ****P<0.0001.
FIG. 5: GL26 cells and SB28-GFP cells were first exposed to BMT (10 μM) and different concentration of STS66 (10, 20 and 40 μM) for 48 h, and Rb^+ influx was measured in either isotonic (10 min) or hypertonic (5 min) solutions using ICR 8000 machine. Results are expressed as means±SEM from four independent experiments. *P<0.05, **P<0.01, ***P<0.001, ****P<0.0001.
GL26 and SB28-GFP cells were seeded in 24-well plates and the rubidium uptake assay was performed on cells that were 60% confluent. TMZ was added to cells for 48 hr incubation. The medium was then removed from the wells and washed with wash buffer (Rb^+ free). After wash buffer was aspirated, isotonic and hypertonic solutions (contain Rb^+) with BMT were added, and cells were incubated at 37° C. for 5 min. […] The Rb^+ concentration was measured using an automated atomic absorption spectrophotometer (Ion Channel Reader, ICR-8000; Aurora Biomed, Vancouver, Canada).

`CCCCNc1cc(CNCC(F)(F)F)cc(S(N)(=O)=O)c1Oc1ccccc1` [STS66, 3-(Butylamino)-2-phenoxy-5-[(2,2,2-trifluoroethylamino)methyl]benzenesulfonamide] yielded a foot-fault rate in assay [1] of 12.5±2.5%. In assay [2] (drugs incubated for 48 h, BMT 10 μM, STS66 10, 20 and 40 μM), the “Rb+ influx inhibition, 48 h incubation” value is given as “inhibited the Rb^+ influx better than BMT”. In assay [2] (drugs incubated for short time: isotonic (10 min) or hypertonic (5 min) solutions, STS66 0 to 40 μM), the “Rb+ influx inhibition, short incubation” value is recorded as “does not inhibit Rb^+ influx”.
